Experimental data reported in patent US20030119067A1, “PYK2 related products and methods” (Sugen, Inc., priority 1996, published 2003).
Read-outs that look alike come from different tables or passages of the source.

How the values were obtained:
Shc = test: Tyrosine phosphorylation of Shc in PC12 cells; format: cell-based, rat; settings: for tyrosine phosphorylation of Shc induced by agonist: DMPP 100 μM, muscarine 1 mM, NGF 100 ng/ml
Procedure: Tyrosine phosphorylation of Shc in response to bradykinin, carbachol, PMA and other stimuli was also measured. Quiescent PC12 cells were stimulated for 5 min at 37° C. with bradykinin (1 μM), carbachol (1 mM), KCl (75 mM), PMA (1.6 μM), NGF(100 ng/ml), or left unstimulated (−). The cells were also stimulated with carbachol (1 mM) or potassium chloride (75 mM) in the presence of 3 mM EGTA. Stimulations with DMPP (100 μM) or muscarine (1 mM) were preformed under the same conditions. […] The Shc proteins were immunoprecipitated with anti-Shc antibodies, the immunoprecipitates were resolved by SDS-PAGE (8%), transferred to nitrocellulose and immunoblotted with anti-phosphotyrosine antibodies.

PYK2 = test: Tyrosine phosphorylation of PYK2 in PC12 cells (immunoprecipitation, anti-phosphotyrosine immunoblot); format: cell-based, rat; settings: for tyrosine phosphorylation of PYK2: quiescent PC12 cells, carbachol 1 mM, KCl 75 mM, A23187 6 μM 15 min, bradykinin 1 μM, PMA 1.6 μM
Kv1.2 potassium channel = test: Tyrosine phosphorylation of Kv1.2 in transfected 293 cells; format: cell-based, human; settings: 293 cells co-expressing Kv1.2-HA and PYK2; PMA 1.6 μM, calcium ionophore 6 μM
PYK2 and Fak = test: Tyrosine phosphorylation of PYK2 and Fak in transfected 293 cells; format: cell-based, human; settings: PMA 1.6 μM, calcium ionophore 6 μM
Procedure: We examined the possibility whether PYK2 can tyrosine phosphorylate the Kv1.2 channel and regulate its function. In order to test this possibility, we expressed in 293 cells the Kv1.2 protein, Kv1.2 together with PYK2, and as a control Kv1.2 with a kinase negative PYK2 mutant (PKN) or with the protein tyrosine kinase Fak. The cells were grown for 24 hours in medium containing 0.2% serum and then stimulated with PMA(1.6 μM), calcium ionophore (6 μM), or left unstimulated.
Immunoblotting analysis with phosphotyrosine anti-bodies following immunoprecipitation of PYK2, PKN and Fak by specific antibodies. […] The level of expression of the kinase negative mutant of PYK2 (PKN) was similar to the expression of wild type PYK2 or FAK. […] We next analyzed the tyrosine phosphorylation of Kv1.2 channel in each cell line.
Embryonic human kidney 293 cells were transiently transfected with different combinations of mammalian expression vectors which direct the synthesis of Kv1.2-HA, PYK2, a kinase negative PYK2 (PKN) or the protein tyrosine kinase Fak. […]
Tyrosine phosphorylation of each protein was analysed following immunoprecipitation and immunoblotting with anti-phosphotyrosine antibodies. The expression of each protein was determined by immunoblot analysis of total cell lysates from each transfection with anti-PYK2, anti-HA or anti-Fak antibodies.

PYK-2 = test: Tyrosine phosphorylation of PYK-2 in NIH3T3 cells overexpressing PYK-2; format: cell-based; settings: NIH3T3 cells overexpressing PYK-2 / PYK-2-HA; TPA 6 μM, 15 min, 37° C.
Excerpt: The PYK-2 cDNA cloned in pLSV was cotransfected with pSV2neo into PC12 cells and NIH3T3 in order to establish stable cell lines. G418 resistant colonies were screened by immunoprecipitating and immunoblotting.
NIH3T3 cell lines were established that overexpress the PYK-2 and the PYK-2-HA protein. […] The level of phosphorylation is not so high.

Kv1.2 channel [1] = test: Kv1.2 currents in Xenopus oocytes (two microelectrode voltage clamp); format: cell-based, Xenopus laevis
Procedure: In vitro capped RNA transcripts of Kv1.2, PYK2 and PKN were synthesized from linearized plasmids DNA templates utilizing the […] mMACHINE kit (Ambion), following the supplier's protocols. The products of the transcription reaction (cRNAs) were diluted in RNAse-free water and stored at −70° C. Expression of the RNAs was done by injection of 50nl of RNA into defolliculated stage V and VI oocytes from Xenopus laevis (Iverson et al., J. Neurosc. 10, 2903-2916, 1990). The injected oocytes were incubated for 2-3 days at 20° C. in L15 solution (1:2 dilution of Gibco's Leibovitz L15 medum in H20, with 50 U/ml nystatin, 0.1 mg/ml gentamycin, 30 mM HEPES buffer, pH 7.3-7.4, filtered through a 0.45 mm membrane) Electrophysiological Recording and analysis. Ionic currents were recorded with a two microelectrode voltage-clamp as described (Iverson et al., supra). The current were low-pass filtered KHz using an 8-pole Bessel filter and stored in a 80286 microcomputer using the pclamp acquisition system (Axon Instruments). The data was analyzed with the clamp fit pro-rams of the pCIamp system (Axon Instruments). All recording were performed at room temperature ([…]). The recording chamber was continually perfused with recording solution. To avoid contamination of the oocyte by Ca+^2-activated Cl^− currents low Cl^− recording solution was used (96 mM Na+, glutamate, 2 mM K^+ glutamate, 0.5 mM CaCl2, 5 mM MgCl2, 5 mM HEPES buffer). The K+ currents were elicited in depolarizinc, steps from −100 to +40 mv in 10 mV increments every 15 seconds.
Kv1.2 currents from oocytes microinjected with either Kv1.2 mRNA, Kv1.2 and PYK2 mRNAs, or Kv1.2 and a kinase negative mutant of PYK2 mRNAs (PKN). Currents were elicited in response to depolarizing steps from −100 to +30 mV increments from a holding potential of −110 mV. Representative traces of Kv1.2 channels before and after bath application of 100 nM PMA at the annotated time (8 and 20 minutes) in the same cell.
Suppression of Kv1.2 currents in response to PMA is blocked by a kinase negative PYK2 mutant (PKN). Inhibition of Kv1.2 currents in an oocyte microinjected with Kv1.2 mRNA before and 25 minutes after treatment with PMA at 50 nM or 100 nM concentration. Recordings from an oocyte expression Kv1.2 and PYK2 or Kv1.2 and a kinase negative mutant of PYK2 under the same conditions as described above. The same protocol was utilized in both experiments.
We asked whether stimulation of PYK2 can suppress Kv1.2 currents. […] Stage V oocytes were microinjected either with Kv1.2 transcripts or with Kv1.2 together with PYK2 or PKN mRNAs. […] The expression of Kv1.2, PYK2 and PKN in the frog oocytes was confirmed by immunoblot analysis with anti-HA or anti-PYK2 antibodies.

Kv1.2 channel [2] = settings: oocytes, after 20 min incubation; as previously shown (Huang et al.); cited from earlier work
[3] = PC12 cells, 37° C., TPA 1.6 μM 15 min, bradykinin 1 μM 1 min, A23187 2 μM 15 min
[4] = PC12 cells, pertussis toxin 100 ng/ml for 20 hours

## CNC1(C)C2CCC(C2)C1(C)C (centres unmarked) [mecamylamine]
Shc
  effect of antagonist on carbachol-induced tyrosine phosphorylation of Shc: blocked the effect of carbachol

## pertussis toxin
PYK2
  effect on the TPA / bradykinin PYK-2 phosphorylation response in combination: induced the response of TPA and bradykinin
PYK2; [3]
  tyrosine phosphorylation of PYK-2 in response to the stimulus alone: didn't cause any response alone
PYK2; [4]
  effect of pretreatment on LPA-induced tyrosine phosphorylation of PYK2: significantly inhibited
  effect of pretreatment on bradykinin or PMA induced activation of PYK2: not affected

## [Cl-].[K+] [KCl, potassium chloride]
PYK2; PC12 cells, no extracellular calcium or EGTA present
  agonist-induced PYK2 tyrosine phosphorylation on omission of extracellular calcium: completely abolished PYK2 tyrosine phosphorylation
PYK2; 37° C.
  tyrosine phosphorylation of PYK2: induces rapid tyrosine phosphorylation of PYK2

## C[N+]1(C)CCN(c2ccccc2)CC1.[I-] [DMPP, 1,1-dimethyl-4-phenyl piperazinium iodide]
Shc
  tyrosine phosphorylation of Shc induced by agonist: induced phosphorylation of Shc

## CN1[C@@H]2CC[C@H]1C[C@@H](OC(=O)C(CO)c1ccccc1)C2 (some centres unmarked) [atropine]
Shc
  effect of antagonist on carbachol-induced tyrosine phosphorylation of Shc: had no effect

## CNc1ccc2oc(C[C@H]3O[C@@]4(CC[C@H]3C)O[C@H]([C@H](C)C(=O)c3ccc[nH]3)[C@H](C)C[C@H]4C)nc2c1C(=O)O [calcium ionophore A23187]
Kv1.2 potassium channel
  tyrosine phosphorylation of Kv1.2: enhanced
PYK2; [3]
  tyrosine phosphorylation of PYK-2 in response to the stimulus alone: undergoes tyrosine phosphorylation
PYK2; 37° C.
  tyrosine phosphorylation of PYK2: phosphorylated on tyrosine residues
PYK2 and Fak
  tyrosine phosphorylation of PYK2 and Fak: induced a weaker response

## EGF: growth factor used to stimulate NIH3T3 cells
PYK-2
  tyrosine phosphorylation of PYK-2: undergoes tyrosine phosphorylation

## CCCCCCCCCCCCCC(=O)O[C@@H]1[C@@H](C)[C@@]2(O)[C@@H](C=C(CO)C[C@]3(O)C(=O)C(C)=C[C@@H]23)[C@@H]2C(C)(C)[C@]12OC(C)=O [PMA, phorbol 12-myristate 13-acetate]
Kv1.2 potassium channel
  tyrosine phosphorylation of Kv1.2: enhanced
Kv1.2 channel [1]; oocytes coexpressing Kv1.2 and PYK2, 8 min after 100 nM PMA
  inhibition of outward current: 95%
Kv1.2 channel [1]; oocytes expressing Kv1.2 alone, 8 min after 100 nM PMA
  inhibition of outward current: 25%
Kv1.2 channel [1]; oocytes treated with PMA
  effect on Kv1.2 currents: caused inhibition of Kv1.2 currents
Kv1.2 channel [1]; oocytes, absence or presence of PYK2 expression
  effect on kinetics and voltage dependence of remaining Kv1.2 currents: did not result in changes in both the kinetics or voltage dependence of the remaining currents
Kv1.2 channel [2]
  inhibition of Kv1.2 currents: 80-90%
PYK2; PC12 cells pretreated with 100 nM PMA for 12 h
  agonist-induced PYK2 tyrosine phosphorylation after prolonged PMA treatment (PKC down-regulation): completely abolished the effect of PMA
PYK2; [3]
  tyrosine phosphorylation of PYK-2 in response to the stimulus alone: undergoes tyrosine phosphorylation
PYK2; PC12 cells, LPA 2.5 mM, bradykinin 1 mM 3 min, PMA 1 mM 10 min, 37° C.
  increase in the phosphorylation state of PYK2 relative to unstimulated cells: 12 fold
PYK2; 37° C.
  tyrosine phosphorylation of PYK2: induced tyrosine phosphorylation of PYK2
PYK2 and Fak
  tyrosine phosphorylation of PYK2 and Fak: induced tyrosine phosphorylation

## PDGF
PYK-2
  tyrosine phosphorylation of PYK-2: undergoes tyrosine phosphorylation

## C[N+](C)(C)CCOC(N)=O [carbachol]
Shc; 1 mM carbachol time course
  time of maximum tyrosine phosphorylation of Shc: one
Shc; 3 mM EGTA
  dependence of agonist-induced tyrosine phosphorylation of Shc on extracellular calcium: dependent on the presence of extracellular calcium
PYK2; PC12 cells, carbachol
  time after applying the agonist at which PYK2 became phosphorylated on tyrosine: 5 s
PYK2; 37° C.
  tyrosine phosphorylation of PYK2: induces strong, tyrosine phosphorylation of PYK2

## C[C@@H]1O[C@H](C[N+](C)(C)C)C[C@H]1O [muscarine]
Shc
  tyrosine phosphorylation of Shc induced by agonist: had no effect

## Cholera toxin
PYK2
  effect on the TPA / bradykinin PYK-2 phosphorylation response in combination: gave higher signal in combination with TPA and bradykinin
  tyrosine phosphorylation of PYK-2 in response to the stimulus alone: didn't cause phosphorylation of PYK-2 alone

## O=C(O)CN(CCOCCOCCN(CC(=O)O)CC(=O)O)CC(=O)O [EGTA, ethyleneglycol-bis (β-aminoethyl ether)-N,N,N′N′-tetraacetic acid]
PYK2; PC12 cells, EGTA 3 mM (elimination of extracellular calcium)
  effect on carbachol-induced tyrosine phosphorylation of PYK2: completely blocked agonist induced tyrosine phosphorylation of PYK2
PYK2; PC12 cells, medium containing 3 mM EGTA
  effect on LPA-induced PYK2 phosphorylation: did not affect

## aFGF: growth factor used to stimulate NIH3T3 cells
PYK-2
  tyrosine phosphorylation of PYK-2: undergoes tyrosine phosphorylation

## NGF: nerve growth factor
Shc
  tyrosine phosphorylation of Shc induced by agonist: induced persistent stimulation of Shc phosphorylation
Shc; NGF
  duration of stimulation of Shc phosphorylation after addition: five
